Experimental data: patent US7655217B2, “Near infrared imaging agent” (Institut fur Diagnosikforschung GmbH, priority 1997, dated 2010)

Columns and labels:
tumour LS 174 T = test: laser-induced fluorescence imaging of tumour-bearing mouse; assay type: in vivo, mouse (Swiss Nude)
Excerpt: 2-[7-[1,3-dihydro-3,3-dimethyl-5-(methoxycarbonyl)-1-(4-sulfobutyl)-2H-indol-2-yliden]-1,3,5-heptatrienyl]-3,3 -dimethyl-5-(methoxycarbonyl)-1-(4-sulfobutyl)-3H-indolium, sodium salt at a dose of 3.8 μmol/kg body weight was applied intravenously to an anaesthetized, tumour-bearing mouse (Swiss Nude; tumour LS 174 T at the right hindleg).
The laser-induced fluorescent images were taken prior to, and at various points in time after, applying the substance with a fluorescence imager (at Physikalisch-Technische Bundesanstalt, Berlin Charlottenburg). Radiation was excited using monochromatic laser light at 740 nm by decoupling the radiation via a fibre optical waveguide system. Exciting radiation below 740 nm was removed using a cutoff filter. The laser-induced fluorescence light above 740 nm was recorded using a CCD camera (Charge Coupled Device), and data was stored in the form of black-and-white images.

[1] = in vivo; cited from earlier work
albumin = albumin (Homo sapiens, UniProt P02768); conditions: cited from earlier work
Chain of albumin (P02768 25-609, species assumed): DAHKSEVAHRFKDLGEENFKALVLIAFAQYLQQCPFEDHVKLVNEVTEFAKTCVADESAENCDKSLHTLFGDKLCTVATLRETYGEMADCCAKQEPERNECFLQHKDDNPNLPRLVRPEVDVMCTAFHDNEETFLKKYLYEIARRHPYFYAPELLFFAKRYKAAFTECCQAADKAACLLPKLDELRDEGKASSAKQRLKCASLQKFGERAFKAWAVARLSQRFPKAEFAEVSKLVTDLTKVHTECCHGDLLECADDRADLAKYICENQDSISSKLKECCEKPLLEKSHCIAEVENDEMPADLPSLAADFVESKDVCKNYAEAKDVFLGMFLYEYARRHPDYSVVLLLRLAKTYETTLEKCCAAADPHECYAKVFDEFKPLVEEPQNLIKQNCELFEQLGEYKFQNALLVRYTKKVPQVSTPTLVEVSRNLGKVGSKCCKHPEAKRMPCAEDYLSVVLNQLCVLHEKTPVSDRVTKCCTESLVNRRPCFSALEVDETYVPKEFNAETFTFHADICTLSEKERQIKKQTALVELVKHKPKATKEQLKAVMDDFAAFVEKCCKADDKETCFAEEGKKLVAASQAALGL

[2] = cited from earlier work

Structure (SMILES) | fluorescent intensity distribution (tumour LS 174 T; 30 seconds after i.v. 3.8 μmol/kg body weight, excitation 740 nm) | fluorescent intensity in the tumour as compared with the rest of the body (tumour LS 174 T; 18 hours after i.v. 3.8 μmol/kg body weight) | distribution of the substance in the animal (tumour LS 174 T; up to 1 h after i.v. 3.8 μmol/kg body weight) | LD50 [1] [mmol/kg] | binding to albumin (albumin) | stability when dissolved ([2]; dissolved) | applicability in saline media ([2]; saline media)
COC(=O)c1ccc2c(c1)C(C)(C)C(=CC=CC=CC=CC1=[N+](CCCCS(=O)(=O)O)c3ccc(C(=O)OC)cc3C1(C)C)N2CCCCS(=O)(=O)O.[Na+] [Example 8, 2-[7-[1,3-dihydro-3,3-dimethyl-5-(methoxycarbonyl)-1-(4-sulfobutyl)-2H-indol-2-yliden]-1,3,5-heptatrienyl]-3,3-dimethyl-5-(methoxycarbonyl)-1-(4-sulfobutyl)-3H-indolium, sodium salt] | values being increased in the hepatic and pulmonary regions and in the tumour | clearly increased fluorescent intensity | spreads more and more throughout the animal |  |  |  | 
CC1(C)C(/C=C/C=C/C=C/C=C2\N(CCCCS(=O)(=O)O)c3ccc4ccccc4c3C2(C)C)=[N+](CCCCS(=O)(=O)[O-])c2ccc3ccccc3c21 [Indocyanine green] |  |  |  | 0.84 | up to 100% | unstable when dissolved | precipitation will occur
